Laboratory results as given in PubChem BioAssay AID1895 (NMMLSC, 2009).
Activity calls are given as the source filed them. How the calls were made is not given here.

target: MEK5 PB1 domain binding to MEKK2 (MAP3K2) mutant PB1, human; assay: inhibitors of MEK5 binding to mutant MEKK2, dose response, biochemical, bead multiplex flow cytometry (AID 1895); conditions: Bead-based multiplex flow cytometry

| Compound | EC50 |
| --- | --- |
| CSc1cccc(NC(=S)N(CCCN2CCCC2)Cc2cccn2Cc2ccc(Cl)cc2)c1 | 7.1 µM |
| COc1ccc(-c2csc(N(CCCN(C)C)C(=O)c3ccccc3Cl)n2)cc1 | > 30 µM (inactive) |
| CC(=O)Nc1cccc2c1C(=O)N(c1cccc(C)c1)C2=O | > 30 µM (inactive) |
| COc1ccc(CSc2n[nH]c(C)n2)cc1[N+](=O)[O-] | > 30 µM (inactive) |
| O=C(c1cc(COc2c(F)cccc2F)on1)N1C[C@H]2CC[C@H]1C2 | > 30 µM (inactive) |
| CCc1ccc(Nc2n[n+](-c3ccccc3)c(-c3cc(OC)c(OC)cc3Br)s2)cc1 | 8.3 µM |
| CCc1ccc(Nc2n[n+](-c3ccccc3)c(-c3ccc(OCc4ccccc4)cc3)s2)cc1 | > 30 µM (inactive) |
| C#CCOCCOCCOCCNc1nc(N2CCN(C(=O)[C@H](Cc3ccc(O)cc3)n3cc([C@@H](N)CC(C)C)nn3)CC2)nc(N2CCN(C(=O)[C@H](Cc3ccc(O)cc3)n3cc([C@@H](N)CC(C)C)nn3)CC2)n1 | 25.1 µM |
| C#CCOCCOCCOCCNc1nc(N2CCN(C(=O)C(Cc3ccc(O)cc3)n3cc(C(N)CC(C)C)nn3)CC2)nc(N2CCN(C(=O)C(Cc3cc4ccccc4[nH]3)n3cc(C(N)Cc4ccc(O)cc4)nn3)CC2)n1 (centres undefined) | 12.8 µM |
| O=C(OCC1O[C@@H](OC(=O)c2cc(O)c(O)c(O)c2)[C@@H](OC(=O)c2cc(O)c(O)c(O)c2)[C@@H](OC(=O)c2cc(O)c(O)c(O)c2)[C@@H]1OC(=O)c1cc(O)c(O)c(O)c1)c1cc(O)c(O)c(O)c1 (some centres undefined) | > 30 µM (inactive) |
| C#CCOCCOCCOCCNc1nc(N2CCN(C(=O)[C@H]([C@@H](C)CC)n3cc([C@@H](N)CO)nn3)CC2)nc(N2CCN(C(=O)[C@H](Cc3cc4ccccc4[nH]3)n3cc([C@@H](N)C(C)CC)nn3)CC2)n1 (some centres undefined) | > 30 µM (inactive) |
| CCc1ccc(-c2nn(-c3ccccc3)cc2CSC(=N)N)cc1 | 5.27 µM |
| NC(=NCCCCCCN=C(N)/N=C(\N)Nc1ccc(Cl)cc1)/N=C(\N)Nc1ccc(Cl)cc1 | > 30 µM (inactive) |
| CCOC(=O)C1=C(c2ccccc2)NC(N)=NC1c1ccc(OCc2ccc(C(=O)OC)cc2)cc1 (centres undefined) | 2.38 µM |
| COc1ccc(C2NCCc3c2[nH]c2ccccc32)cc1CN1CCc2cc(OC)c(OC)cc2C1C (centres undefined) | 13.2 µM |
| CCCCCCCCCCOC(=O)Cn1c(COc2cccc(C)c2)[n+](C)c2ccccc21 | > 30 µM (inactive) |
| c1ccc(CNc2nc(NCc3ccccc3)c3ccccc3n2)cc1 | > 30 µM (inactive) |
| CCN1CCN(Cc2ccc(NC(=O)c3ccc(C)c(NC(=O)C(=O)c4c[nH]c5ccccc45)c3)cc2C(F)(F)F)CC1 | > 30 µM (inactive) |
| S=c1[nH]nc(-c2ccc(Cl)cc2)n1-c1ccc2c(c1)OCCO2 | > 30 µM (inactive) |
| COc1ccc(N2CC(C(=O)Nc3nnc(SCc4ccccn4)s3)CC2=O)cc1 (centres undefined) | > 30 µM (inactive) |
| CCCCn1c(O)c(/C=C/C=C/C=Nc2ccccc2)sc1=S | inactive |

| Compound | EC50 |
| --- | --- |
| CCCCCCCCCCOC(=O)Cn1c(COc2ccc(C)cc2)[n+](C)c2ccccc21 | 4.57 µM |
| CCN1CCN(Cc2ccc(NC(=O)c3cc(NC(=O)c4cnn(-c5ccccc5)c4N)cc(OC)c3)cc2C(F)(F)F)CC1 | > 30 µM (inactive) |
| CCOc1ccc(C2=C/C(=C/c3cccnc3)C(=O)O2)cc1 | > 30 µM (inactive) |
| CCOC(=O)C1=C(c2ccccc2)NC(N)=NC1c1ccc(OCc2ccc(Cl)cc2)c(OC)c1 (centres undefined) | 9.64 µM |
| C#CCOCCOCCOCCNc1nc(N2CCN(C(=O)C(Cc3cc4ccccc4[nH]3)n3cc(C(N)C(C)CC)nn3)CC2)nc(N2CCN(C(=O)C(Cc3cc4ccccc4[nH]3)n3cc(C(N)C(C)CC)nn3)CC2)n1 (centres undefined) | 4.1 µM |
| CCc1ccc(Nc2n[n+](-c3ccccc3)c(-c3ccc(OC)c(Br)c3)s2)cc1 | 4.62 µM |
| CN(c1ccccc1)c1ccc(/C=c2\s/c(=C(/C#N)C(=O)C(C)(C)C)n(Cc3ccco3)c2=O)cc1 | inactive |
| C#CCOCCOCCOCCNc1nc(N2CCN(C(=O)C(Cc3ccc(O)cc3)n3cc(C(N)CC(C)C)nn3)CC2)nc(N2CCN(C(=O)C(Cc3cc4ccccc4[nH]3)n3cc(C(N)C(C)CC)nn3)CC2)n1 (centres undefined) | > 30 µM (inactive) |
| CCCN1C(=O)/C(=C\C=C2/Sc3ccccc3N2CC)SC1=S | inactive |
| C#CCOCCOCCOCCNc1nc(N2CCN(C(=O)[C@H]([C@@H](C)CC)n3cc([C@@H](N)CC(C)C)nn3)CC2)nc(N2CCN(C(=O)[C@H](Cc3cc4ccccc4[nH]3)n3cc([C@@H](N)CC(C)C)nn3)CC2)n1 | 20.9 µM |
| CCCCCCCCCC[N+](C)(C)CC/C=C1/c2ccccc2Sc2ccc(Cl)cc21 | > 30 µM (inactive) |
| CC[n+]1c(/C=C/C=C/N(C(C)=O)c2ccccc2)sc2ccccc21 | > 30 µM (inactive) |
| O=C(CCCC(=O)N(CC(=O)NC1CCCC1)C1CCCC1)Nc1ccccn1 | > 30 µM (inactive) |
| CCCSc1ncnc2sc(C)c(C)c12 | > 30 µM (inactive) |
| C#CCOCCOCCOCCNc1nc(N2CCN(C(=O)[C@H](Cc3ccc(O)cc3)n3cc([C@@H](N)C(C)CC)nn3)CC2)nc(N2CCN(C(=O)[C@H](Cc3cc4ccccc4[nH]3)n3cc([C@@H](N)Cc4ccc(O)cc4)nn3)CC2)n1 (some centres undefined) | > 30 µM (inactive) |
| CCCN(CCC)CCNC(=O)c1cc2c(-c3ccc(Cl)cc3)nn(C)c2s1 | 11.2 µM |
| CCNc1ccc2noc3c2c1C(=O)c1ccccc1-3 | 4.43 µM |
| CCOC(=O)c1c(-c2ccc(-c3ccccc3)cc2)csc1NC(=O)CNCCN(C)C | 1.09 µM |
| CCOC(=O)c1c(C)n(-c2ccc(C)cc2)c2ccc(OCC(O)CN3CCN(C)CC3)cc12 (centres undefined) | > 30 µM (inactive) |
| Cc1cc(N=Nc2ccc(C)c(N=Nc3cc(C)c(N)cc3N)c2)c(N)cc1N | > 30 µM (inactive) |
| CCOC(=O)C(C(=O)OCC)c1cc(Br)c2noc3c2c1C(=O)c1ccccc1-3 | inactive |

| Compound | EC50 |
| --- | --- |
| O=C(Nc1ccc(Cl)cn1)c1ccc2c(Cl)c3c(nc2c1)CCC3 | > 30 µM (inactive) |
| COc1ccc(C(CCNCc2ccc(OC(C)C)cc2)c2ccccc2OC)cc1 (centres undefined) | > 30 µM (inactive) |
| COc1cc(CNCCc2c[nH]c3ccccc23)ccc1OCc1ccccc1F | > 30 µM (inactive) |
| CC(C)N=c1cc2n(-c3ccc(Cl)cc3)c3ccccc3nc-2cc1Nc1ccc(Cl)cc1 | inactive |
| Cc1nn2c(N)csc2nc1=O | inactive |
| COc1ccc(-n2nc3c(N)n[nH]c3cc2=O)cc1 | > 30 µM (inactive) |
| CN1CCN(c2ccc(NC(=O)c3ccc(-c4ccc(Cl)cc4)o3)cc2)CC1 | > 30 µM (inactive) |
| CCCCCCCCCCOC(=O)Cn1c(COc2ccc(OC)cc2)[n+](C)c2ccccc21 | > 30 µM (inactive) |
| CN(C)CCCn1c(SCC(=O)Nc2nc(-c3cccc(Br)c3)cs2)nc2ccccc2c1=O | > 30 µM (inactive) |
| Cc1ccc(-c2csc(NC(=O)C[n+]3cc(-c4ccc(C)cc4)n4c3CCC4)n2)cc1 | > 30 µM (inactive) |
| Cc1cc2ccccc2n1CCNC(=O)c1ccccc1 | > 30 µM (inactive) |
| CCN(CC)CCOC(=O)c1ccc(NC(=O)c2cn(-c3ccccc3)nc2-c2cccs2)cc1 | > 30 µM (inactive) |
| CC(=O)Nc1ccc(OCC(O)Cn2c3ccccc3c3ccccc32)cc1 (centres undefined) | > 30 µM (inactive) |
| CCC(/C=C1\Sc2ccc(OC)cc2N1CCO)=C\c1sc2ccc(OC)cc2[n+]1CCO | 0.51 µM |
| Nc1ccc2nc(-c3ccc(-c4nc5ccc(N)cc5[nH]4)cc3)[nH]c2c1 | > 30 µM (inactive) |
| CCCCCc1cc(=O)oc2c(C(CCN3CCCC(C)C3)c3ccc(OC)cc3)c(OC)cc(OC)c12 (centres undefined) | 12 µM |
| O=C(Nc1ccc(C2=NCCN2)cc1)c1ccc(C(=O)Nc2ccc(C3=NCCN3)cc2)c([N+](=O)[O-])c1 | > 30 µM (inactive) |
| Cc1ccccc1OCC(O)CNC1CCC(NCC(O)COc2ccccc2C)CC1 (centres undefined) | > 30 µM (inactive) |
| Cc1nc(Nc2cnc(/C=C/c3cc(C(=O)Nc4cccc(C(F)(F)F)c4)ccc3C)cn2)cc(N2CCNCC2)n1 | > 30 µM (inactive) |
| CN1CCN(CC(=O)N2CCn3c4c(c5cc(C6CCCCC6)ccc53)CCCC42)CC1 (centres undefined) | > 30 µM (inactive) |
| CN(C)c1ccc(/C=C/C=C2/SC(=S)N(c3ccccc3)C2=O)cc1 | inactive |

| Compound | EC50 |
| --- | --- |
| CNC[C@H](CC1CCCCC1)NC[C@H](Cc1ccccc1)NCCC12CC3CC(CC(C3)C1)C2 | > 30 µM (inactive) |
| CS(=O)(=O)N1N=C(c2ccccc2)CC1c1ccc2c(c1)OCO2 (centres undefined) | inactive |
| CCN(CC)CCOC(=O)c1ccc(N/C=C(/C#N)c2nc(-c3ccc(OC)cc3)cs2)cc1 | > 30 µM (inactive) |
| CCN1/C(=C/C=C/C=C/C=C/c2sc3ccccc3[n+]2CC)Sc2ccccc21 | > 30 µM (inactive) |
| CNC(=O)C(=O)Nc1c(C)cc(C)cc1C | > 30 µM (inactive) |
| CCCCCCOc1ccc(/C(C)=N/NC2=NCCN2)cc1[N+](=O)[O-] | 14.4 µM |
| N=C(N)SCc1cn(-c2ccccc2)nc1-c1ccc(Br)cc1 | 8.53 µM |
| COc1ccc2[nH]c3c(C)c4ccncc4c(C)c3c2c1 | > 30 µM (inactive) |
| CN(C)CCCNc1cc(C(C)(C)C)nc2c(-c3ccc(Cl)cc3)cnn12 | > 30 µM (inactive) |
| COc1ccc(-c2[nH]ncc2CN2CCCCCCC2)c(OC)c1 | > 30 µM (inactive) |
| CCN1/C(=C\c2ccc3cc(C)ccc3[n+]2CC)Sc2cc(C)c(C)cc21 | > 30 µM (inactive) |
| C/C(=N\NC(=O)c1cc(O)cc(O)c1)c1ccc(NC(=O)Cc2ccccc2)cc1 | > 30 µM (inactive) |
| OCCCCNCc1ccc(OCc2ccc(Cl)cc2Cl)cc1 | > 30 µM (inactive) |
| CN(C)CCNc1ncnc2c1sc1nc(-c3ccccc3)c3c(c12)CCCC3 | 4.06 µM |
| O=C1Nc2ccc(Br)cc2/C1=N/N=C/C1=C(N2CCOCC2)C(=C\c2ccccc2)/CC1 | inactive |
| C#CCOCCOCCOCCNc1nc(N2CCN(C(=O)[C@H](CCC(=O)O)n3cc(C(N)CO)nn3)CC2)nc(N2CCN(C(=O)[C@H](Cc3cc4ccccc4[nH]3)n3cc(C(N)[C@H](C)CC)nn3)CC2)n1 (some centres undefined) | > 30 µM (inactive) |
| NC(=O)CSc1nnc(Cc2ccc3c(c2)OCO3)o1 | > 30 µM (inactive) |
| N#CC(C#N)=c1ccc2c(c1)N1C(c3ccccc3)=CC(c3ccccc3)C3CCCCC31N=2 (centres undefined) | > 30 µM (inactive) |

same assay, conditions: Bead-based multiplex flow cytometry, measured here: Ki for PB1 binding

| Compound | Ki [nM] |
| --- | --- |
| CN(c1ccccc1)c1ccc(/C=c2\s/c(=C(/C#N)C(=O)C(C)(C)C)n(Cc3ccco3)c2=O)cc1 | 160 |
| CCCN1C(=O)/C(=C\C=C2/Sc3ccccc3N2CC)SC1=S | 2610 |
| CCNc1ccc2noc3c2c1C(=O)c1ccccc1-3 | 4340 |
| CCOC(=O)C(C(=O)OCC)c1cc(Br)c2noc3c2c1C(=O)c1ccccc1-3 | 2900 |
| Cc1nn2c(N)csc2nc1=O | 3340 |
| CCC(/C=C1\Sc2ccc(OC)cc2N1CCO)=C\c1sc2ccc(OC)cc2[n+]1CCO | 500 |
| CS(=O)(=O)N1N=C(c2ccccc2)CC1c1ccc2c(c1)OCO2 (centres undefined) | 950 |
| O=C1Nc2ccc(Br)cc2/C1=N/N=C/C1=C(N2CCOCC2)C(=C\c2ccccc2)/CC1 | 2030 |
